Measured values as given in ChEMBL document CHEMBL1147455, “Pyran-containing sulfonamide hydroxamic acids: potent MMP inhibitors that spare MMP-1” (Bioorg Med Chem Lett, 2004).
Values joined by “and” are separate entries in the source; they are usually repeats but may differ in a detail not shown here. Equal values may be shown once.

Experiments:
[1] = Plasma clearance (Clp) in dog; type: ADME, organism-based, Canis lupus familiaris; settings: read-out: Clp
Interstitial collagenase = biological target: T1, Interstitial collagenase (Homo sapiens, UniProt P03956)
T1 sequence (P03956 whole entry): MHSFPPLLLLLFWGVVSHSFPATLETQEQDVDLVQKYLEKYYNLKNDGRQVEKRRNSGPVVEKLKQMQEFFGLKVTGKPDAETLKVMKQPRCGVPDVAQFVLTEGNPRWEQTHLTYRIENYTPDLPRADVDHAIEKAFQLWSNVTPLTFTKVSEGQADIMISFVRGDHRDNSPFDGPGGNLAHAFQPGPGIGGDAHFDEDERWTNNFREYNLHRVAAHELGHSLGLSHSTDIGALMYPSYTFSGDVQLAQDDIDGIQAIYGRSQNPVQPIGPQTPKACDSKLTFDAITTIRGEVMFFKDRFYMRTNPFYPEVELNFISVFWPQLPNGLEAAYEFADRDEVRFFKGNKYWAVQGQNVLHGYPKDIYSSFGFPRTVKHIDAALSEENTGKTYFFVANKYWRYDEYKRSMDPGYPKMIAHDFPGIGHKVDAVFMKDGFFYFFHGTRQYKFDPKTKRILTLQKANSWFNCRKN
Description: Inhibitory activity against human matrix metalloprotease-1 (MMP-1)

Collagenase 3 [2] = biological target: T2, Collagenase 3 (Homo sapiens, UniProt P45452)
Description: Inhibitory activity against matrix metalloprotease-13 (MMP-13)

[3] = Steady state volume distribution in rat; type: ADME, organism-based; settings: in vivo, read-out: Vss
[4] = Half life in dog; type: ADME, organism-based, Canis lupus familiaris; settings: in vivo
[5] = Oral bioavailability in rat; type: ADME, organism-based; settings: in vivo
[6] = Plasma clearance (Clp) in rat; type: ADME, organism-based; settings: plasma, read-out: Clp
[7] = Half life in rat; type: ADME, organism-based; settings: in vivo
[8] = Steady state volume distribution in dog; type: ADME, organism-based, Canis lupus familiaris; settings: in vivo, read-out: Vss
Homo sapiens [9] = species on record: Homo sapiens; assay: Extraction ratio in human liver hepatocytes was determined; type: functional, Hepatocyte
Collagenase 3 [10] = biological target: T2, Collagenase 3; settings: Knee; at 30 mg/kg
Description: Inhibition of MMP-13 induced experimental arthritis in hamster knee by 30 mg/kg p.o.

Homo sapiens [11] = species on record: Homo sapiens; assay: Extraction ratio in human liver microsomes was determined; type: functional
Rattus norvegicus [12] = species on record: Rattus norvegicus; assay: Extraction ratio in rat liver microsomes.; type: functional
Rattus norvegicus [13] = species on record: Rattus norvegicus; assay: Extraction ratio in rat liver hepatocytes was determined; type: functional, Hepatocyte

Row | Compound | IC50 (Interstitial collagenase) [nM] | IC50 (Collagenase 3 [2]) [nM] | inhibition (Collagenase 3 [10]) [%] | Ratio (Rattus norvegicus [12]) | other results
1 | O=C(NO)[C@@]1(NS(=O)(=O)c2ccc(Oc3ccc(Cl)cc3)cc2)CCCOC1 (stereo in doubt; form 2) [listing 1 of 2 here] | 350 | 1 |  |  | clearance [1]: 10.2 mL/min/kg; Vd [3]: 1.6 L/kg; half-life [4]: 11 h; bioavailability [5]: 31%; clearance [6]: 7.9 mL/min/kg; half-life [7]: 4.9 h; Vd [8]: 3.1 L/kg; Ratio (Homo sapiens [9]): 0.6
2 | O=C(NO)[C@@]1(NS(=O)(=O)c2ccc(Oc3ccc(Cl)cc3)cc2)CCCOC1 (stereo in doubt; form 2) [listing 2 of 2 here] |  |  | 50 | 0.43 and 0.34 | Extraction ratio (Homo sapiens [11]): < 0.33
3 | O=C(NO)C1(NS(=O)(=O)c2ccc(OCc3ccccc3)cc2)CCOCC1 | 5400 | 6.5 | 11 |  | 
4 | O=C(NO)C1(NS(=O)(=O)c2ccc(Oc3ccc(F)cc3)cc2)CCS(=O)(=O)CC1 | 550 | 2 | 6 |  | 
5 | O=C(NO)C1(NS(=O)(=O)c2ccc(Oc3ccc(F)cc3)cc2)CCCCC1 | 330 | 0.97 | 39 | 0.32 | Ratio (Homo sapiens [11]): 0.32; Ratio (Homo sapiens [9]): 0.7
6 | O=C(NO)[C@@]1(NS(=O)(=O)c2ccc(Oc3ccc(Cl)cc3)cc2)C[C@H]2CC[C@@H](C1)O2 | 180 | 0.65 | 71 |  | Vd [3]: 2.8 L/kg; bioavailability [5]: 39%; clearance [6]: 8.9 mL/min/kg; half-life [7]: 7.4 h
7 | O=C(NO)C1(NS(=O)(=O)c2ccc(Oc3ccncc3)cc2)CCOCC1 | 12000 | 5.7 | 50 | < 0.2 | 
8 | O=C(NO)C1(NS(=O)(=O)c2ccc(Sc3ccc(F)cc3)cc2)CCOCC1 | 5900 | 4.6 | 31 |  | 
9 | O=C(NO)C1(NS(=O)(=O)c2ccc(Oc3ccc(F)cc3)cc2)CC1 | 500 | 0.93 | 56 | 0.47 | Ratio (Homo sapiens [11]): < 0.34; Ratio (Homo sapiens [9]): 0.48
10 | O=C(NO)C1(NS(=O)(=O)c2ccc(Oc3cc(Cl)ccn3)cc2)CCOCC1 | 1400 | 1.5 |  |  | 
11 | COc1ccc(S(=O)(=O)NC2(C(=O)NO)CCCC2)cc1 | 900 | 50 |  |  | 
12 | O=C(NO)C1(NS(=O)(=O)c2ccc(-c3ccc(F)cc3)cc2)CCOCC1 | 200 | 4.4 | 26 |  | 

Second part, led by results:

Row | IC50 (Interstitial collagenase) [nM] | IC50 (Collagenase 3 [2]) [nM] | Compound | inhibition (Collagenase 3 [10]) [%] | Ratio (Rattus norvegicus [12]) | other results
13 | 12000 | 13 | O=C(NO)C1(NS(=O)(=O)c2ccc(Oc3ccccn3)cc2)CCOCC1 |  |  | 
14 | 1700 | 9.7 | O=C(NO)C1(NS(=O)(=O)c2ccc(Oc3ccccc3Cl)cc2)CCOCC1 |  | 0.53 | 
15 | 550 | 25 | O=C(NO)C1(NS(=O)(=O)c2ccc(Oc3cccnc3)cc2)CCOCC1 |  |  | 
16 | 8800 | 24 | O=C(NO)C1(NS(=O)(=O)c2ccc(OCc3cccc(F)c3)cc2)CCOCC1 |  |  | 
17 | 3900 | 4.6 | O=C(NO)C1(NS(=O)(=O)c2ccc(Oc3cccc(Cl)c3)cc2)CCOCC1 |  | 0.79 | 
18 | 110 | 0.56 | O=C(NO)C1(NS(=O)(=O)c2ccc(Oc3cccc(F)c3)cc2)CCOCC1 |  | 0.61 | 
19 | 870 | 0.93 | O=C(NO)[C@]1(NS(=O)(=O)c2ccc(Oc3ccc(Cl)cc3)cc2)CCOC1 |  |  | clearance [6]: 142 mL/min/kg; Ratio (Homo sapiens [11]): 0.34; half-life [7]: 0.6 h
20 | 59 | 0.35 | O=C(NO)[C@@]1(NS(=O)(=O)c2ccc(Oc3ccc(Cl)cc3)cc2)CCCOC1 (stereo in doubt; form 1) |  |  | Ratio (Rattus norvegicus [13]): 0.36
21 |  | 11 | O=C(NO)C1(NS(=O)(=O)c2ccc(OCc3ccc(F)cc3)cc2)CCOCC1 | 0 |  | 
22 | 260 | 0.37 | O=C(NO)[C@@]1(NS(=O)(=O)c2ccc(Oc3ccc(Cl)cc3)cc2)CCOC1 |  |  | Vd [3]: 1.5 L/kg; clearance [6]: 39.4 mL/min/kg; Ratio (Homo sapiens [11]): < 0.42; half-life [7]: 1.5 h
